ChEMBL document CHEMBL5661979, “Pharmacological inhibition of BMK1 suppresses tumor growth through promyelocytic leukemia protein” (Cancer Cell, 2010)
The source made the active and inactive calls. The calls are words filed in the database; no cut-off is given here.

Legend:
[1] = molecular target: Ribosomal protein S6 kinase alpha-6 (Homo sapiens) (UniProt Q9UK32); assay: Inhibition of C-terminal RPS6KA6 kinase domain (unknown origin) assessed as remaining activity at 10 uM by ATP-competition binding assay relative to control
[2] = molecular target: Serine/threonine-protein kinase Chk1 (Homo sapiens, UniProt O14757); assay: Inhibition of CHK1 in human HeLa cells lysate pre incubated for 15 mins followed by ATP acyl phosphate probe addition and measured after 10 mins by LC-MS/MS analysis; format: subcellular
[3] = molecular target: Inhibitor of nuclear factor kappa-B kinase subunit alpha (Homo sapiens, UniProt O15111); assay: Inhibition of IKKA in human HeLa cells lysate pre incubated for 15 mins followed by ATP acyl phosphate probe addition and measured after 10 mins by LC-MS/MS analysis; format: subcellular
Inhibitor of nuclear factor kappa-B kinase subunit alpha, sequence (O15111 whole entry): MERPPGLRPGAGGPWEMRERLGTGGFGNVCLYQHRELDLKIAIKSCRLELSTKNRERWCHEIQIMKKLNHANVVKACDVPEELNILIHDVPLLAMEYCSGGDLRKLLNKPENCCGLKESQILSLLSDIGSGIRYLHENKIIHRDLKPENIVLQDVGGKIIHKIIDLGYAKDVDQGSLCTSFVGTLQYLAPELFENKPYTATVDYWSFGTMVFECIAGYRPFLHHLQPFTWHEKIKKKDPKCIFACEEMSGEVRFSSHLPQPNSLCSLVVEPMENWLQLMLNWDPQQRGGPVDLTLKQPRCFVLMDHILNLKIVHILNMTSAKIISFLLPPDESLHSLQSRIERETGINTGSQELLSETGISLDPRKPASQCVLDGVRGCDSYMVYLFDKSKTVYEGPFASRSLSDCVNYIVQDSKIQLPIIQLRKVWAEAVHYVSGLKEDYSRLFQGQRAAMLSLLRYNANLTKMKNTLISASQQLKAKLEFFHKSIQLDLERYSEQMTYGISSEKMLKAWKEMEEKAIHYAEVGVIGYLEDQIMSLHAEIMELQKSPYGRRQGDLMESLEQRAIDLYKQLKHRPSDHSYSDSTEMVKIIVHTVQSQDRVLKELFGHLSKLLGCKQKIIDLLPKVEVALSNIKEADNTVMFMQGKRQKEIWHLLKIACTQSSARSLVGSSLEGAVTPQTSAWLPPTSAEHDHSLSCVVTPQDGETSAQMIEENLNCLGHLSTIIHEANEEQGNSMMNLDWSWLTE

[4] = molecular target: Serine/threonine-protein kinase MRCK beta (Homo sapiens, UniProt Q9Y5S2); assay: Inhibition of MRCKB in human HeLa cells lysate pre incubated for 15 mins followed by ATP acyl phosphate probe addition and measured after 10 mins by LC-MS/MS analysis; format: subcellular
Serine/threonine-protein kinase MRCK beta, sequence (Q9Y5S2 whole entry): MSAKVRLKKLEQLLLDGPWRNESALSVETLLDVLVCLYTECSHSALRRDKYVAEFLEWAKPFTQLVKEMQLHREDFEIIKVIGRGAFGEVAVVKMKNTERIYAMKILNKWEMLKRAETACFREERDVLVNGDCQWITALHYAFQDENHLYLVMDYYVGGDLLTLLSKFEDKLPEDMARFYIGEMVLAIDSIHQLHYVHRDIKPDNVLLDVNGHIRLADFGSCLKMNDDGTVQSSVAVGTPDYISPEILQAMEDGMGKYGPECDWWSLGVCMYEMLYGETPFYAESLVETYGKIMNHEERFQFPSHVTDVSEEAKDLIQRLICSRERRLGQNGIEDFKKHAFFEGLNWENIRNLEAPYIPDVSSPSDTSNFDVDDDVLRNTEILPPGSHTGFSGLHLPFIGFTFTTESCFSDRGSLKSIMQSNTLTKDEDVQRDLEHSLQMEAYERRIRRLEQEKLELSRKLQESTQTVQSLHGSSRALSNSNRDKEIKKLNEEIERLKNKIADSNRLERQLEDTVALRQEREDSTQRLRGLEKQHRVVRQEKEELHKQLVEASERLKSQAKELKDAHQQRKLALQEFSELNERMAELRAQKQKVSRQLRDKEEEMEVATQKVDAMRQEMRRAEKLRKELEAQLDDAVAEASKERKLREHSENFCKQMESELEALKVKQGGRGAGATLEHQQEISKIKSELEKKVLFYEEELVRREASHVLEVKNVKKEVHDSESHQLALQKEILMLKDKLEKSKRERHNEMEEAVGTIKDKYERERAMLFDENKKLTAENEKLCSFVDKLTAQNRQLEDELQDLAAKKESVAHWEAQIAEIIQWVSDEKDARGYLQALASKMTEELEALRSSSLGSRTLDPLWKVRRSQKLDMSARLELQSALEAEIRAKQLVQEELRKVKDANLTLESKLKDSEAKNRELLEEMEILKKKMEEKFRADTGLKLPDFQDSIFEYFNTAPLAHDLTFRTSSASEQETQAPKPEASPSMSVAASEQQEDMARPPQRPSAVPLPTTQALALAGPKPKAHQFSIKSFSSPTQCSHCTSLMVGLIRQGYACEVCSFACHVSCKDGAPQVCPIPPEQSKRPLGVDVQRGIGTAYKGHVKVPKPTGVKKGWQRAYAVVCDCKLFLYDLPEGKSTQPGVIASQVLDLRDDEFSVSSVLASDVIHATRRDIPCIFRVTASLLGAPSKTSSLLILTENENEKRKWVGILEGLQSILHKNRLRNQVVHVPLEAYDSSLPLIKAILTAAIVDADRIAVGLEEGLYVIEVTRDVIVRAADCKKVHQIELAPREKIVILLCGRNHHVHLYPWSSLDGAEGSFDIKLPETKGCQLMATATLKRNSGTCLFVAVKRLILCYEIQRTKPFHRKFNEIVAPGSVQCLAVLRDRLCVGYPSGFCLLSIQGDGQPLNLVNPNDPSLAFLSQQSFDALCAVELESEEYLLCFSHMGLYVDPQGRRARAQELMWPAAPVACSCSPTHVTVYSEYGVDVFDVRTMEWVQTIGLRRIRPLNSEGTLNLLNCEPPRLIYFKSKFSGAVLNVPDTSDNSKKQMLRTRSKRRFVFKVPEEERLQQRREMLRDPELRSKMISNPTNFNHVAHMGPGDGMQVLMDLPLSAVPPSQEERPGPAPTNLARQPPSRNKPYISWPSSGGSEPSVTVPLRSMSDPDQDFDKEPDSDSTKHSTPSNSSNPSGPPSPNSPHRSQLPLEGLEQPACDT

[5] = molecular target: Ribosomal protein S6 kinase alpha-3 (Homo sapiens, UniProt P51812); assay: Inhibition of RSK2 in human HeLa cells lysate pre incubated for 15 mins followed by ATP acyl phosphate probe addition and measured after 10 mins by LC-MS/MS analysis; format: subcellular
Ribosomal protein S6 kinase alpha-3, sequence (P51812 whole entry): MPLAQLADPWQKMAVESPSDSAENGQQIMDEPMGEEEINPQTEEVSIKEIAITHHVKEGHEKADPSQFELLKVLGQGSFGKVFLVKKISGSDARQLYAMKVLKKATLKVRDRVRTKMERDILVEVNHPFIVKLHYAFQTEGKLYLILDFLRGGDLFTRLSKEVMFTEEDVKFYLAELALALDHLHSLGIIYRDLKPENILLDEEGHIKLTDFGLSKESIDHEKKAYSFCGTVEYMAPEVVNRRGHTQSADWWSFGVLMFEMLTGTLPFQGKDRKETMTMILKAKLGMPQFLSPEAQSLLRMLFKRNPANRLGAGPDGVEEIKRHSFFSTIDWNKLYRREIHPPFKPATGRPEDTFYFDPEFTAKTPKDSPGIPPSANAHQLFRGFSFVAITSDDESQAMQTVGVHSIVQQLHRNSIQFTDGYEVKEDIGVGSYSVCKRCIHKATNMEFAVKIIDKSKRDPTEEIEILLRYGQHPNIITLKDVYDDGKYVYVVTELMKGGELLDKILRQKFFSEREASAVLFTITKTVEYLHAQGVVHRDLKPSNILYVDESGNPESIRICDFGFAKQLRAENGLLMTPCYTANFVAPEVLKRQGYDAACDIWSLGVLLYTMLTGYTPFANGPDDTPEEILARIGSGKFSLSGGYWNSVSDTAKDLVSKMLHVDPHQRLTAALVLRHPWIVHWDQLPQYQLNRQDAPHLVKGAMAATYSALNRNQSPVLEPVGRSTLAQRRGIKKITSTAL

[6] = molecular target: SRSF protein kinase 1 (Homo sapiens, UniProt Q96SB4); assay: Inhibition of SRPK1 in human HeLa cells lysate pre incubated for 15 mins followed by ATP acyl phosphate probe addition and measured after 10 mins by LC-MS/MS analysis; format: subcellular
[7] = molecular target: Phosphatidylinositol 4-kinase beta (Homo sapiens, UniProt Q9UBF8); assay: Inhibition of PIK4CB in human HeLa cells lysate pre incubated for 15 mins followed by ADP acyl phosphate probe addition and measured after 10 mins by LC-MS/MS analysis; format: subcellular
[8] = molecular target: Serine/threonine-protein kinase ULK2 (Homo sapiens, UniProt Q8IYT8); assay: Inhibition of ULK2 in human HeLa cells lysate pre incubated for 15 mins followed by ADP acyl phosphate probe addition and measured after 10 mins by LC-MS/MS analysis; format: subcellular
[9] = molecular target: T1, Ribosomal protein S6 kinase alpha-1 (Homo sapiens, UniProt Q15418); assay: Inhibition of RSK1 domain 2 K1 site in human HeLa cells lysate at 10 uM pre incubated for 15 mins followed by ADP acyl phosphate probe addition and measured after 10 mins by LC-MS/MS analysis relative to control; format: subcellular; conditions: time 25.0 min
T1 sequence (Q15418 whole entry, the tested form may be a part): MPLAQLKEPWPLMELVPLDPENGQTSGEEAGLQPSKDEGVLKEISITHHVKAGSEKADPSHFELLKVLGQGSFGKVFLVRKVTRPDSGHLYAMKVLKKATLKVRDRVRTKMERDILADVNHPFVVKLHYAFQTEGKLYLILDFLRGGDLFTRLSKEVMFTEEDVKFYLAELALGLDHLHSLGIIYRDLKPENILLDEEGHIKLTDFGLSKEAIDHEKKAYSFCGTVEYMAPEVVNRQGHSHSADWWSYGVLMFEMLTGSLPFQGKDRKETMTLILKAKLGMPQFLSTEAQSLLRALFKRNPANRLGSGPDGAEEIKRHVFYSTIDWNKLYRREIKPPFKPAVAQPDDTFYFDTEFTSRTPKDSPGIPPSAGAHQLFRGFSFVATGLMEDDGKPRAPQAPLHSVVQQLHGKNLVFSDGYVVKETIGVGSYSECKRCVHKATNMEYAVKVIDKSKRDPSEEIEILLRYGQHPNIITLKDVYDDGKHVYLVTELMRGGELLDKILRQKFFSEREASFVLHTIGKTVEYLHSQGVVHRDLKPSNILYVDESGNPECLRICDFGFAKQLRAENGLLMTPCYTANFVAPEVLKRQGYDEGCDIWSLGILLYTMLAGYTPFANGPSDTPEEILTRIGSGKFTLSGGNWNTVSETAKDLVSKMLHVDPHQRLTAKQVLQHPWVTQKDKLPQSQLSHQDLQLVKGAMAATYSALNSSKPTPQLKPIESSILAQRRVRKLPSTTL

[10] = molecular target: T1, Ribosomal protein S6 kinase alpha-1; assay: Inhibition of RSK1 domain 2 K1 site in human HeLa cells lysate at 2 uM pre incubated for 15 mins followed by ADP acyl phosphate probe addition and measured after 10 mins by LC-MS/MS analysis relative to control; format: subcellular; conditions: time 25.0 min
[11] = molecular target: T2, EKC/KEOPS complex subunit TP53RK (Homo sapiens) (UniProt Q96S44); assay: Inhibition of PRPK in human HeLa cells lysate at 2 uM pre incubated for 15 mins followed by ADP acyl phosphate probe addition and measured after 10 mins by LC-MS/MS analysis relative to control; format: subcellular; conditions: time 25.0 min
T2 sequence (whole entry): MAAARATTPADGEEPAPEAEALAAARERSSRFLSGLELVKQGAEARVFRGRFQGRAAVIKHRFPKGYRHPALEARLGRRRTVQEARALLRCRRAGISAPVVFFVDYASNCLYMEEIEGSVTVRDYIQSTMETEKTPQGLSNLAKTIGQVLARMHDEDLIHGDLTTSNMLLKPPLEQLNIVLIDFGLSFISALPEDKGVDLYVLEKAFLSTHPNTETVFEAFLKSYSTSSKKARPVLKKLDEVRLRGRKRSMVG

[12] = molecular target: T3, Serine/threonine-protein kinase Sgk3 (Homo sapiens) (UniProt Q96BR1); assay: Inhibition of SGK3 in human HeLa cells lysate at 2 uM pre incubated for 15 mins followed by ADP acyl phosphate probe addition and measured after 10 mins by LC-MS/MS analysis relative to control; format: subcellular; conditions: time 25.0 min
T3 sequence (whole entry): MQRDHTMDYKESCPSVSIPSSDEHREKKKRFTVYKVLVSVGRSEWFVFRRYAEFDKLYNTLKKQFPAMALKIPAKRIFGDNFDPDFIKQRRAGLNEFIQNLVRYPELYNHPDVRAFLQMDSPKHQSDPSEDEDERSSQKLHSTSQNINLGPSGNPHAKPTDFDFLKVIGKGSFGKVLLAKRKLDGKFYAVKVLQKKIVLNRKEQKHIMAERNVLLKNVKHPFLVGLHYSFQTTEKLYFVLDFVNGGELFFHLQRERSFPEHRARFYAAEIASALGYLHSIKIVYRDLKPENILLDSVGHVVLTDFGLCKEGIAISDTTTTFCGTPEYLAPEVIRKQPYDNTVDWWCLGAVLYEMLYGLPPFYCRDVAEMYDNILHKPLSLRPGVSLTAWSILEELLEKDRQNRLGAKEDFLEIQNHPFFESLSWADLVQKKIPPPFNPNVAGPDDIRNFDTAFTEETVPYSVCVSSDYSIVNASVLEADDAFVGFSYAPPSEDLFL

[13] = molecular target: Phosphatidylinositol 3-kinase catalytic subunit type 3 (Homo sapiens, UniProt Q8NEB9); assay: Inhibition of PIK3C3 in human HeLa cells lysate at 50 uM pre incubated for 15 mins followed by ATP acyl phosphate probe addition and measured after 10 mins by LC-MS/MS analysis relative to control; format: subcellular; conditions: time 25.0 min
Phosphatidylinositol 3-kinase catalytic subunit type 3, sequence (Q8NEB9 whole entry): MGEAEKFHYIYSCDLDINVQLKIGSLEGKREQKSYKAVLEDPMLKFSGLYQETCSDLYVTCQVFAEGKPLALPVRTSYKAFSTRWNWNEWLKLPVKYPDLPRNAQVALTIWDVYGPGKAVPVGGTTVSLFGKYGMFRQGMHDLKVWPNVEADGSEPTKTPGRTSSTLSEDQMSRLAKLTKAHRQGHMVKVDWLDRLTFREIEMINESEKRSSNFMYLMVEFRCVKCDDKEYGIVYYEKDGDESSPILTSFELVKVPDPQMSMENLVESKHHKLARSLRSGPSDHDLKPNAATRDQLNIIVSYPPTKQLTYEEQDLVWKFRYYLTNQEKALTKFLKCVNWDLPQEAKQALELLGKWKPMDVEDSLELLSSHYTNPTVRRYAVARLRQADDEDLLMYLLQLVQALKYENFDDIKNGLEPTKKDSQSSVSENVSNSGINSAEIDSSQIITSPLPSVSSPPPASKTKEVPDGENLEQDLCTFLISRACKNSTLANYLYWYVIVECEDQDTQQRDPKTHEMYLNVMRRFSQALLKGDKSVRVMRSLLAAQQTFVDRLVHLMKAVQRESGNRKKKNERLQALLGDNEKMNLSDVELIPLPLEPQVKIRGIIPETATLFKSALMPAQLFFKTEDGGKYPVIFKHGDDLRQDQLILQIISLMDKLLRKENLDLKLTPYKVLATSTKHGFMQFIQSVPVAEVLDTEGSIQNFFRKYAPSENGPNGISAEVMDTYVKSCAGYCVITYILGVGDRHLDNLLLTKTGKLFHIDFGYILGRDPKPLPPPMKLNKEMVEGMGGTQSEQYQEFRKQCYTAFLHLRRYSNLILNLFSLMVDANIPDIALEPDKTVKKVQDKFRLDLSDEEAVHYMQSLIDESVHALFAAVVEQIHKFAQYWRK

[14] = molecular target: Serine/threonine-protein kinase 3/4 (Homo sapiens) (UniProt Q13043+Q13188); assay: Inhibition of MST1/2 in human HeLa cells lysate at 50 uM pre incubated for 15 mins followed by ATP acyl phosphate probe addition and measured after 10 mins by LC-MS/MS analysis relative to control; format: subcellular; conditions: time 25.0 min
[15] = molecular target: T4, Phosphorylase b kinase gamma catalytic chain, liver/testis isoform (Homo sapiens) (UniProt P15735); assay: Inhibition of PHKg2 in human HeLa cells lysate at 10 uM pre incubated for 15 mins followed by ATP acyl phosphate probe addition and measured after 10 mins by LC-MS/MS analysis relative to control; format: subcellular; conditions: time 25.0 min
T4 sequence (whole entry): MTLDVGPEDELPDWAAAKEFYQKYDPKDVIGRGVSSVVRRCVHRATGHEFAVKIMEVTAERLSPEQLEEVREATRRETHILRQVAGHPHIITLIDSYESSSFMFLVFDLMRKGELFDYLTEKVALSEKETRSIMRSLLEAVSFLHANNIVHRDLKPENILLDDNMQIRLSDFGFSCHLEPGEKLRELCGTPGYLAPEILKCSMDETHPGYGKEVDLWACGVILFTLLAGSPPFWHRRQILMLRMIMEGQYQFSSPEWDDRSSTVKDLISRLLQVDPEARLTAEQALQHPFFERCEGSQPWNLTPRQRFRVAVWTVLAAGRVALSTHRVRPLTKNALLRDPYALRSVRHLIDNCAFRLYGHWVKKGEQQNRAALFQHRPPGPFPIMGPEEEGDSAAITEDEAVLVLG

[16] = molecular target: T4, Phosphorylase b kinase gamma catalytic chain, liver/testis isoform (Homo sapiens); assay: Inhibition of PHKg2 in human HeLa cells lysate at 2 uM pre incubated for 15 mins followed by ATP acyl phosphate probe addition and measured after 10 mins by LC-MS/MS analysis relative to control; format: subcellular; conditions: time 25.0 min
[17] = molecular target: Serine/threonine-protein kinase PLK4 (Homo sapiens) (UniProt O00444); assay: Inhibition of recombinant Flag-tagged PLK4 (unknown origin) expressed in HEK293 cells at 0.08 to 10 uM in presence of 32P-gamma-ATP; format: cell-based; conditions: dose 0.08-10 µM

## CCOc1cc(N2CCC(O)CC2)ccc1Nc1ncc2c(n1)N(C)c1ccccc1C(=O)N2C
[1]
  Activity: 31%
[2]
  IC50: > 50 µM
[3]
  IC50: > 50 µM
[4]
  IC50: > 50 µM
[5]
  IC50: > 50 µM
[6]
  IC50: > 50 µM
[7]
  IC50: > 50 µM
[8]
  IC50: > 50 µM
[9]
  inhibition: 23.4%
[10]
  inhibition: 18%
[11]
  inhibition: 23.1%
[12]
  inhibition: 16.6%
[13]
  inhibition: 19.3%
[14]
  inhibition: 11.3%
[15]
  inhibition: -4.9%
[16]
  inhibition: 3.7%
[17]
  inhibition: Active
